The values that follow come from patent US12269823B2, “Crystal form of pyridopyrimidine derivative and preparation method thereof” (JIANGSU HENGRUI MEDICINE CO., LTD., priority 2020, dated 2025).

A word on the IC50: it is the point on the concentration scale where inhibition reaches its midpoint.

Series [1] has as its system IL-12 secretion in peripheral blood mononuclear cells (PBMCs). As to the kind of experiment: Stimulation of IL-12 secretion in PBMCs. The format is cell-based, human. The following applies: 24 h incubation. How it is done: Test example 5. Determination of the ability of the compound disclosed herein to stimulate IL-12 and IFNγ secretion in peripheral blood mononuclear cells (PBMCs) The ability of the compound disclosed herein to stimulate IL-12 and IFNγ secretion in PBMCs was determined by the following procedures:
• 1. RPMI 1640 (Invitrogen, 11875), • 2. FBS (Gibco, 10099-141), • 3. Ficoll-Paque PREMIUM (GE, 17-5442-02), • 4. Trypan blue solution (Sigma, T8154-100ML), • 5. SepMateTM-50 (Stemcell, 15460), • 6. Bright-Line™ cytometer (Sigma, Z359629-1EA), • 7. 96-well flat bottom plate (Corning, 3599), • 8. 96-well v-bottom plate (Corning, 3894), • 9. Human IL-12 ELISA kit (NEOBIOSCIENCE, EHC152.96), • 10. Human IFN γ kit (Cisbio, 62HIFNGPEG), • 11. PHERAStar Multi-Mode Microplate Reader (BMG, PHERAStar). II. Procedures […]
All reagents were equilibrated to room temperature. […] The cells were resuspended in RMPI 1640 culture medium containing 10% FBS, counted and adjusted to 3.33×10^6 cells/mL. […]
The reagents of the Human IL-12 detection kit was equilibrated to room temperature. […] Finally, a terminating solution was added to terminate the reaction, and the plate was detected for the absorbance at 450 nm using a microplate reader. […]
The ability of the compound disclosed herein to stimulate IL-12 and IFNγ secretion in PBMCs was determined by the above test and the MEC values obtained are shown in Table 1-5.

Series [2] has as its target T1, CYP3A4 (testosterone metabolic site) (Homo sapiens, UniProt P08684).
T1 construct: Human liver microsome (Corning Gentest); tissue Corning Gentest; host or cells: human liver microsomes
The series is described as follows: Inhibition of testosterone metabolic site on human liver microsome CYP3A4. It is filed as in vitro ADME. The following applies: human liver microsomes, testosterone probe. On the procedure: Test example 4. Inhibitory effect of the compound disclosed herein on enzymatic activity of testosterone metabolic site on human liver microsome CYP3A4
The inhibitory effect of the compound disclosed herein on the enzymatic activity of the testosterone metabolic site on human liver microsome CYP3A4 was determined by the following procedures:
• 1. Phosphate buffered saline (PBS), • 2. NADPH (Sigma N-1630), • 3. Human liver microsome (Corning Gentest), • 4. ABI QTrap 4000 LC-MS/MS System (AB Sciex), • 5. Inertsil C8-3 column, 4.6×50 mm, 5 (Dikma, USA), • 6. CYP probe substrate (testosterone/100 μM, SIGMA K1003) and positive control inhibitor (ketoconazole, Dr. Ehrenstorfer GmbH, C17322500). II. Procedures
A 100 mM PBS buffer was prepared and was used to prepare a 2.5 mg/mL microsome solution and a 5 mM NADPH solution. A compound working solution at 5× concentration was serially diluted with PBS (150, 50, 15, 5, 1.5, 0.15, 0.015 and 0 μM). A ketoconazole working solution at 5× concentration was serially diluted with PBS (150, 50, 15, 5, 1.5, 0.15, 0.015 and 0 μM). A dextromethorphan working solution was diluted to 50 μM with PBS. […]
The IC50 values of the drug for testosterone metabolic site on CYP3A4 were calculated by Graphpad Prism and are shown in Table 1-4.
Background: Microsomes from liver hold many membrane-bound enzymes, among them those of drug oxidation.

The target in another series is T2, TLR7 (Homo sapiens, UniProt Q9NYK1).
T2 sequence (Q9NYK1 27-1049): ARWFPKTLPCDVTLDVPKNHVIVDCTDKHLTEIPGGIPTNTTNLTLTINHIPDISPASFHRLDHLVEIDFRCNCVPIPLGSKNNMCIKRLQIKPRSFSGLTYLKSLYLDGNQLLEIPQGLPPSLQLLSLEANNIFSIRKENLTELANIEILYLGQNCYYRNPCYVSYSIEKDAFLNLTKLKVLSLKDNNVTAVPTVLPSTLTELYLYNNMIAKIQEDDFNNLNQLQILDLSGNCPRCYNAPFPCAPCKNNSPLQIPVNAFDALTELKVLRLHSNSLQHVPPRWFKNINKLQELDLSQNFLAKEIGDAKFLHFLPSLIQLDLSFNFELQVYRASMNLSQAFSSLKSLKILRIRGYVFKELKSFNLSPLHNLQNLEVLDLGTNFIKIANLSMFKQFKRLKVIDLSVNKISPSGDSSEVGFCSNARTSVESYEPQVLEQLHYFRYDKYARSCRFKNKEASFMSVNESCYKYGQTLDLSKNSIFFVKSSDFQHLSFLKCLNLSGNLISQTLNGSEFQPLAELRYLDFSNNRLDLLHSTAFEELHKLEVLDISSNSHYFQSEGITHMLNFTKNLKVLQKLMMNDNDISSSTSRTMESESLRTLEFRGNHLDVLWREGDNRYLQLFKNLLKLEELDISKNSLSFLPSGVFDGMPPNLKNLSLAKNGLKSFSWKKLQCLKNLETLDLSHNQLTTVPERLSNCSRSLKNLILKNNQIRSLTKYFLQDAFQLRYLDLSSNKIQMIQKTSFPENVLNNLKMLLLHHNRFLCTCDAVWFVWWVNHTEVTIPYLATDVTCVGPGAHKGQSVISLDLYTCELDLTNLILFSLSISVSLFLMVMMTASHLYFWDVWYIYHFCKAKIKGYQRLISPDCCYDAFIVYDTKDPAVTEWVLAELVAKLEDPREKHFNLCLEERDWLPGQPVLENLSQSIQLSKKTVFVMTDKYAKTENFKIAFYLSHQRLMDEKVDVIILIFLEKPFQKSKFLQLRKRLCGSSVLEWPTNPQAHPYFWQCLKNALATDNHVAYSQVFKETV
Conditions: background statement; cited from earlier work.

The next series concerns Cyp and hERG. The following applies: background statement; cited from earlier work.
Series [3] in a line: 30-day influencing factor stability test (heating, illumination, high humidity). The format is physicochemical. How it is done:
The crystalline form A and crystalline form B of the compound of formula (I) were transferred and let stand in clean open weighing bottles to test the stability under the conditions of heating (40° C., 60° C.), illumination (4500 1×±500 1×) and high humidity (90%±5%, 75%±5%) during an inspection period of 30 days.

A short description of series [4]: Stability under long-term and accelerated conditions, 3 months. The format is physicochemical. How it is done:
The crystalline form B of the compound of formula (I) was examined for the stability under long-term (25° C., 60% RH) and accelerated (40° C., 75% RH) conditions in a period of 3 months.

The structures appear in SMILES notation.

T1 sequence (P08684 whole entry): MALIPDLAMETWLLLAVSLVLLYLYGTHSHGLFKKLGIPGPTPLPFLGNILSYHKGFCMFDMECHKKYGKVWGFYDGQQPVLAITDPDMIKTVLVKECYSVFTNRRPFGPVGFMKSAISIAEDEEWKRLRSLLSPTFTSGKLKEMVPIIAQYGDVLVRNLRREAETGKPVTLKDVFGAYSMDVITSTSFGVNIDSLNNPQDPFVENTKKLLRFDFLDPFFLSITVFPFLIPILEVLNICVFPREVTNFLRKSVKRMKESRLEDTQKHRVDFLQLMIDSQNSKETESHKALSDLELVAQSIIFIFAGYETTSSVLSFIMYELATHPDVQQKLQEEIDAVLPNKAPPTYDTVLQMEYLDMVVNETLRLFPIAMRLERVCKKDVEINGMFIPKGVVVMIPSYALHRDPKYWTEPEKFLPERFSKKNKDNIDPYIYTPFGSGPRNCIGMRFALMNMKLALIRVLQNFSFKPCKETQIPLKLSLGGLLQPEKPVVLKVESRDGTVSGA

`CCCC[C@](C)(CO)Nc1nc(N)nc2cc(-c3ccc(CN4CCN(C)CC4)nc3)cnc12` [Example 1, (R)-2-((2-amino-7-(6-((4-methylpiperazin-1-yl)methyl)pyridin-3-yl)pyrido[3,2-d]pyrimidin-4-yl)amino)-2-methylhexan-1-ol]: the “IL-12 MEC (minimum effective concentration)” value in series [1] is reported as 41 nM. Besides, in series [2], the IC50 at 30 min was > 30 µM.
As to `CCCC[C@](C)(CO)Nc1nc(N)nc2cc(F)cnc12` [GS-9688], on TLR7, the “Activity on TLR7 (in words)” value was “certain activity on TLR7”. Further, the “Selectivity for Cyp and hERG (in words)” value in the series with Cyp and hERG is “poor selectivity for Cyp and hERG”.
Regarding `CCCN(CCC)C(=O)C1=Cc2ccc(-c3ccc(C(=O)N4CCCC4)cc3)cc2N=C(N)C1` [VTX-2337], the “Activity on TLR7 (in words)” value at TLR7 is reported as “certain activity on TLR7”. Further, in the series on Cyp and hERG, the “Selectivity for Cyp and hERG (in words)” value is “poor selectivity for Cyp and hERG”.
Take `CCCC[C@](C)(CO)Nc1nc(N)nc2cc(-c3ccc(CN4CCN(C)CC4)nc3)cnc12` [crystalline form A]: the Purity in series [3] (40° C., 5 days) is 96.98%; in series [3] (40° C., 10 days) it was 96.98%; in series [3] (40° C., 30 days) it was 95.47%; in series [3] (60° C., 5 days) it was 95.87%; in series [3] (60° C., 10 days), 95.72%; in series [3] (60° C., 30 days) it was 93.74%. The Purity in series [3] (4500 lux, 5 days) is 95.82%; in series [3] (4500 lux, 10 days) it was 94.99%; in series [3] (4500 lux, 30 days), 92.51%; in series [3] (Initial, 0 days), 97.83%; in series [3] (RH 75%, 5 days) it was 97.83%; in series [3] (RH 75%, 10 days), 97.85%. The Purity in series [3] (RH 75%, 30 days) is 97.47%; in series [3] (RH 90%, 5 days) it was 97.91%; in series [3] (RH 90%, 10 days), 97.84%; in series [3] (RH 90%, 30 days), 97.53%.
As for `CCCC[C@](C)(CO)Nc1nc(N)nc2cc(-c3ccc(CN4CCN(C)CC4)nc3)cnc12` [crystalline form B], the “Physical and chemical stability (in words)” value in series [4] (3 months, long-term (25° C., 60% RH) and accelerated (40° C., 75% RH)) was “good physical and chemical stabilities”. Moreover, the Purity in series [4] (25° C., 60% RH, Initial) stood at 99.71%; in series [4] (25° C., 60% RH, Month 1), 99.70%; in series [4] (25° C., 60% RH, Month 2), 99.71%; in series [4] (25° C., 60% RH, Month 3), 99.62%; in series [4] (40° C., 75% RH, Initial), 99.71%; in series [4] (40° C., 75% RH, Month 1) it was 99.69%. Also, the Purity in series [4] (40° C., 75% RH, Month 2) amounted to 99.68%; in series [4] (40° C., 75% RH, Month 3), 99.54%; in series [3] (40° C., 5 days) it was 98.19%; in series [3] (40° C., 10 days), 98.17%; in series [3] (40° C., 30 days) it was 97.23%; in series [3] (60° C., 5 days), 97.87%. Moreover, the Purity was 97.53% in series [3] (60° C., 10 days); 96.24% in series [3] (60° C., 30 days); 95.48% in series [3] (4500 lux, 5 days); 92.61% in series [3] (4500 lux, 10 days); 88.03% in series [3] (4500 lux, 30 days); 98.65% in series [3] (Initial, 0 days). The Purity is given as 98.65% in series [3] (RH 75%, 5 days); 98.69% in series [3] (RH 75%, 10 days); 97.96% in series [3] (RH 75%, 30 days); 98.69% in series [3] (RH 90%, 5 days); 98.75% in series [3] (RH 90%, 10 days); 97.99% in series [3] (RH 90%, 30 days).
